In ChEMBL document CHEMBL3396969, “Reemergence of chloroquine (CQ) analogs as multi-targeting antimalarial agents: a review” (Eur J Med Chem, 2015):

Key:
Plasmodium falciparum [1] = assay: Antimicrobial activity against chloroquine-resistant Plasmodium falciparum K1; assay type: functional, organism-based
Plasmodium falciparum [2] = assay: Antimicrobial activity against Plasmodium falciparum Dd2; assay type: functional
Plasmodium falciparum [3] = assay: Antimicrobial activity against chloroquine-sensitive Plasmodium falciparum 3D7; assay type: functional, organism-based
Plasmodium falciparum [4] = assay: Antimicrobial activity against Plasmodium falciparum Dd2 infected in human erythrocytes after 72 hrs by SYBR green I fluorescence-based method; assay type: functional, cell-based; details: Dd2, 72 h
Plasmodium falciparum [5] = assay: Antimicrobial activity against Plasmodium falciparum 7G8 infected in human erythrocytes after 72 hrs by SYBR green I fluorescence-based method; assay type: functional, cell-based; details: 7G8, 72 h
Plasmodium falciparum [6] = assay: Antimicrobial activity against Plasmodium falciparum D6 infected in human erythrocytes after 72 hrs by SYBR green I fluorescence-based method; assay type: functional, organism-based; details: D6, 72 h
Plasmodium falciparum [7] = assay: Antimicrobial activity against chloroquine/MQ/atrovaquone-resistant Plasmodium falciparum TM90C2B infected in human erythrocytes after 72 hrs by SYBR green I fluorescence-based method; assay type: functional, organism-based
Plasmodium falciparum [8] = assay: Antimicrobial activity against chloroquine-sensitive Plasmodium falciparum 3D7 infected in human erythrocytes after 72 hrs by SYBR green I fluorescence-based method; assay type: functional, organism-based; details: 3D7, 72 h
Plasmodium falciparum [9] = assay: Antimicrobial activity against chloroquine/SP-resistant Plasmodium falciparum W2 infected in human erythrocytes after 72 hrs by SYBR green I fluorescence-based method; assay type: functional, organism-based; details: W2, 72 h
Plasmodium falciparum [10] = assay: Antimicrobial activity against Plasmodium falciparum Thai6 infected in human erythrocytes after 72 hrs by SYBR green I fluorescence-based method; assay type: functional, organism-based; details: Thai6, 72 h
Plasmodium falciparum [11] = assay: Antimicrobial activity against Plasmodium falciparum Cam6 infected in human erythrocytes after 72 hrs by SYBR green I fluorescence-based method; assay type: functional, organism-based; details: Cam6, 72 h
Plasmodium falciparum [12] = assay: Antimicrobial activity against Mq-resistant Plasmodium falciparum D6 infected in human erythrocytes after 72 hrs by SYBR green I fluorescence-based method; assay type: functional, organism-based; details: D6, 72 h
[13] = Inhibition of beta-hematin formation; assay type: physicochemical
Plasmodium falciparum [14] = assay: Antimicrobial activity against chloroquine-resistant Plasmodium falciparum W2 infected in human erythrocytes assessed as incorporation of [3H]-hypoxanthine by beta counting analysis; assay type: functional, organism-based

## COc1cc(NC(C)CCCNc2ccnc3cc(Cl)ccc23)c2ncccc2c1 (stereo not drawn)
Plasmodium falciparum [1]
  IC50: 80 nM
Plasmodium falciparum [2]
  IC50: 80 nM
Plasmodium falciparum [3]
  IC50: 80 nM

## CCN(CC)CCNc1c(C)cnc2cc(Cl)ccc12
Plasmodium falciparum [4]
  IC50: 0.9 nM
Plasmodium falciparum [5]
  IC50: 0.9 nM
Plasmodium falciparum [6]
  IC50: 0.9 nM

## CN(C)C(C)(C)CNc1ccnc2cc(Cl)ccc12
Plasmodium falciparum [7]
  IC50: 5.52 nM
Plasmodium falciparum [8]
  IC50: 5.52 nM
Plasmodium falciparum [9]
  IC50: 5.52 nM
Plasmodium falciparum [10]
  IC50: 5.52 nM
Plasmodium falciparum [11]
  IC50: 5.52 nM
Plasmodium falciparum [12]
  IC50: 5.52 nM

## COc1cc(NC(C)CCCN)c2ncccc2c1 (stereo not drawn) [PRIMAQUINE]
Plasmodium falciparum [1]
  IC50: 460 nM
Plasmodium falciparum [2]
  IC50: 460 nM
Plasmodium falciparum [3]
  IC50: 460 nM

## CCN(CC)CCCC(C)Nc1ccnc2cc(Cl)ccc12 (stereo not drawn) [CHLOROQUINE]
[13]
  IC50: 27900 nM

## CC(C)(N)CNc1ccnc2cc(Cl)ccc12
Plasmodium falciparum [7]
  IC50: 5.52 nM
Plasmodium falciparum [8]
  IC50: 5.52 nM
Plasmodium falciparum [9]
  IC50: 5.52 nM
Plasmodium falciparum [10]
  IC50: 5.52 nM
Plasmodium falciparum [11]
  IC50: 5.52 nM
Plasmodium falciparum [12]
  IC50: 5.52 nM

## NCCNCCNc1ccnc2cc(Cl)ccc12
Plasmodium falciparum [14]
  IC50: 60 nM
